Data as given in paper PMC3753754, “Andrographis paniculata Extract and Andrographolide Modulate the Hepatic Drug Metabolism System and Plasma Tolbutamide Concentrations in Rats” (Evidence-based Complementary and Alternative Medicine : eCAM, 2013).

Legend:
[1] = Pharmacokinetics of tolbutamide in control, APE-pretreated and andrographolide-pretreated rats; type: in vivo, Sprague-Dawley rats; conditions: male, Sprague-Dawley, rat, plasma, control rats (methyl cellulose vehicle for 5 days), tolbutamide 20 mg/kg oral
Experimental: Seven-week-old male Sprague-Dawley rats cannulated in the jugular vein were purchased from the Bio LASCO Experimental Animal Center (Taipei, Taiwan). The animals were fed a standard rat diet and were randomly assigned into control, APE-treated, and andrographolide-treated groups (n = 5). Rats were housed in plastic cages in a room kept at 23 ± 1°C and 60 ± 5% relative humidity with a 12-hour light and dark cycle. Food and drinking water were available ad libitum. Control rats were orally administered methyl cellulose. […] After the 5th daily dose, rats were deprived of food overnight. On day 6, a 20 mg/kg oral dose of tolbutamide, as a solution in Cremophor EL (polyoxyl 35 hydrogenated castor oil, Sigma)/ethanol/water (30/10/60, v/v/v), was administered to each rat. After the administration of tolbutamide, serial blood samples were collected up to 12 h after dosing from each rat. The animals were then killed by exsanguination, and the livers were collected.
Tolbutamide was prepared in a solution of Cremophor EL/ethanol/water (30/10/60, v/v/v). After administration, blood samples (~200 μL) were collected from the tail vein of each rat at 0.25, 0.5, 1, 2, 4, 8, and 12 h after dosing. Plasma was separated from blood by centrifugation (4000 ×g for 20 min at 4°C). An aliquot of 50 μL plasma was mixed with 100 μL acetonitrile and then centrifuged at 10,000 ×g for 15 min at 4°C. The supernatant was used to determine the concentration of tolbutamide by LC/MS. Calibration standards of tolbutamide were prepared by serial dilution of a tolbutamide stock solution with blank plasma, yielding final concentrations of tolbutamide ranging from 1 to 300 μg/mL of plasma.
The HPLC system consisted of an Agilent 1100 series LC System (Palo Alto, CA) and an Agilent Zorbax Eclipse XDB-C8 column (3 μm, 3.0 mm × 150 mm), interfaced to an Agilent MSD mass spectrometer equipped with an electrospray ionization source. Column temperature was set at 25°C. The initial mobile phase composition was 30% acetonitrile containing 10 mM ammonium acetate (solvent A) and 70% of 0.1% formic acid (solvent B). The following gradient system was used: 30% A to 50% A (0-1 min), 50% A to 98% A (1–3 min), 98% A (3–9 min), 98% A to 30% A (9-10 min), and 30% A (10–15 min). The flow rate was 0.5 mL/min. Sample injection volume was 10 μL. The MS data acquisition was via selected ion monitoring. The positive ion of the testing compound was selected, and the peak size was measured. The area under the plasma tolbutamide concentration versus time curve (AUC) was calculated by using the trapezoidal method.

[2] = Plasma tolbutamide concentration in high-fat diet-induced obese mice; type: in vivo, C57BL/6 mice; conditions: C57BL/6, mouse, 2 h after dosing 20 mg/kg oral tolbutamide, control obese mice (methyl cellulose vehicle)
Experimental: Eleven-month-old high-fat diet-fed (45% of energy from fat; Research Diet Inc., New Brunswick, NJ) C57BL/6 mice were obtained from the National Health Research Institute (Miaoli, Taiwan). Control mice were orally administered 0.5% methyl cellulose (10 mL/kg). […] After the 5th daily dose, the mice were deprived of food overnight. On day 6, a 20 mg/kg oral dose of tolbutamide, as a solution in Cremophor EL/ethanol/water (30/10/60, v/v/v), was administered to each mouse. Thirty minutes later, a 1 g/kg dose of glucose, as a solution in water, was administered orally according to the method described by Zong et al.. Serial blood samples were collected up to 8 h after the glucose dose from each mouse. The animals were then killed by exsanguination and the livers collected.
Tolbutamide was prepared in a solution of Cremophor EL/ethanol/water (30/10/60, v/v/v). […]
The HPLC system consisted of an Agilent 1100 series LC System (Palo Alto, CA) and an Agilent Zorbax Eclipse XDB-C8 column (3 μm, 3.0 mm × 150 mm), interfaced to an Agilent MSD mass spectrometer equipped with an electrospray ionization source. […] The positive ion of the testing compound was selected, and the peak size was measured. The area under the plasma tolbutamide concentration versus time curve (AUC) was calculated by using the trapezoidal method.

In the case of `CCCCNC(=O)NS(=O)(=O)c1ccc(C)cc1` [tolbutamide], the MRT [1] is reported as 7.9 ± 1.6 h, the AUC(0-t) ([1]; read-out: AUC0–12 h of plasma tolbutamide) is reported as 1390 ± 262 µg·h/mL and the Cmax ([1]; read-out: C max of tolbutamide) is reported as 151 ± 21 µg/mL. It also gave a Tmax ([1]; read-out: T max of tolbutamide) of 1.6 ± 0.5 h and a concentration at 2 h [2] of 124 ± 32 µg/mL.
